The results in this text go back to patent US9006246B2, “Tetrahydrocarboline derivative” (Ono Pharmaceutical Co., Ltd., priority 2010, dated 2015).

The target of one assay is human ENPP2 (Homo sapiens (Human), UniProt Q13822). The experiment in a line: Measurement of human ENPP2 inhibitory activity. It is filed as biochemical. Particulars: 1 μM test compound; 16:0-LPC substrate, 37° C., 24 hours; read-out: ENPP2 inhibition rate(%) (1 μM). Here is the method:
10 μL of a test compound solution (10% dimethyl sulfoxide) at each concentration and 40 μL of a 5 μg/mL human ENPP2 solution (buffer A: 100 mmol/L Tris-HCl (pH 9.0), 500 mmol/L NaCl, 5 mmol/L MgCl2, 0.05% Triton X-100) were mixed, 50 μL of a 2 mmol/L 16:0-lysophosphatidylcholine (LPC) solution (buffer A) was further added to react at 37° C. for 24 hours. Subsequently, to 10 μL of the reaction solution was added 90 μL of a measurement buffer (0.5 mmol/L aminoantipyrine, 0.3 mmol/L N-ethyl-N-(2-hydroxy-3-sulfopropyl)-3-methylaniline, 1 U/mL peroxidase, 3 U/mL choline oxidase, 100 mmol/L Tris-HCl (pH 8.5), 5 mmol/L CaCl2) to react at 37° C. for 20 minutes, and spectrophotometric determination was performed at 555 nm.
Using a standard curve, a choline production amount (enzyme activity) in each test compound was calculated, and the inhibitory activity rate of each test compound was calculated, wherein the enzyme activity in a positive control to which a test compound is not added, was a 0% inhibition rate, and the enzyme activity in a negative control to which a test compound and human ENPP2 are not added, were 100% inhibition. Further, concerning the present compounds shown in Table 3, an IC50 value was calculated from inhibitory activity rate at each concentration.
The inhibition is the drop in the measured response relative to a control, in per cent. For `O=C(CC12CCC(C(=O)O)(CC1)C2)N1CCc2c(n(Cc3ccc(Cl)cc3)c3ncccc23)C1` [Example 31(189), 4-{2-[9-(4-chlorobenzyl)-5,6,8,9-tetrahydro-7H-pyrido[4′,3′:4,5]pyrrolo[2,3-b]pyridin-7-yl]-2-oxoethyl}bicyclo[2.2.1]heptane-1-carboxylic acid], the inhibition at 1 µM amounted to 99.3%. The same measure, in the same setting: the figure for `O=C(C[C@H]1CC[C@H](C(=O)O)CC1)N1CCc2c(n(Cc3ccc(Cl)cc3)c3ncccc23)C1` [Example 31(34), trans-4-{2-[9-(4-chlorobenzyl)-5,6,8,9-tetrahydro-7H-pyrido[4′,3′:4,5]pyrrolo[2,3-b]pyridin-7-yl]-2-oxoethyl}cyclohexanecarboxylic acid] is 98.6%.

As for `CC1(C)[C@@H](CC(=O)N2CCc3c(n(Cc4ccc(F)cc4)c4ncccc34)C2)CC[C@@]1(C)C(=O)O` [Example 31(162), (1R,3R)-3-{2-[9-(4-fluorobenzyl)-5,6,8,9-tetrahydro-7H-pyrido[4′,3′:4,5]pyrrolo[2,3-b]pyridin-7-yl]-2-oxoethyl}-1,2,2-trimethylcyclopentanecarboxylic acid], the inhibition at 1 µM was found to be 99.5%.

For `O=C(CC12CCC(C(=O)O)(CC1)C2)N1CCc2c(n(Cc3cccc(F)c3)c3ncccc23)C1` [Example 31(181), 4-{2-[9-(3-fluorobenzyl)-5,6,8,9-tetrahydro-7H-pyrido[4′,3′:4,5]pyrrolo[2,3-b]pyridin-7-yl]-2-oxoethyl}bicyclo[2.2.1]heptane-1-carboxylic acid], the inhibition at 1 µM was 98.7%. On to `O=C(C[C@H]1CC[C@H](C(=O)O)CC1)N1CCc2c(n(Cc3ccc(F)cc3F)c3ncccc23)C1` [Example 31(32), trans-4-{2-[9-(2,4-difluorobenzyl)-5,6,8,9-tetrahydro-7H-pyrido[4′,3′:4,5]pyrrolo[2,3-b]pyridin-7-yl]-2-oxoethyl}cyclohexanecarboxylic acid], for which the inhibition at 1 µM was determined as 98.2%.

In the case of `COc1cc(CC(=O)N2CCc3c(n(Cc4cc(F)c(F)cc4F)c4ncccc34)C2)ccc1C(=O)O` [Example 51(24), 2-methoxy-4-{2-oxo-2-[9-(2,4,5-trifluorobenzyl)-5,6,8,9-tetrahydro-7H-pyrido[4′,3′:4,5]pyrrolo[2,3-b]pyridin-7-yl]ethyl}benzoic acid], the inhibition at 1 µM worked out at 97.5%.

On to `CC(C)(CCC(=O)N1CCc2c(n(Cc3ccccc3)c3ccccc23)C1)CC(=O)O` [Example 15, 6-(9-benzyl-1,3,4,9-tetrahydro-2H-beta-carbolin-2-yl)-3,3-dimethyl-6-oxohexanoic acid], for which the inhibition at 1 µM was determined as 84.1%.

The assay is the same for the next values; noted with them: 16:0-LPC substrate, 37° C., 24 hours.
Usually IC50 stands for the concentration at which inhibition is half-maximal. Low values mean inhibition by little substance, high ones a need for much substance. For `O=C(O)CCCCC(=O)N1CCc2c(n(CCCc3ccccc3)c3ccccc23)C1` [Example 3, 6-oxo-6-[9-(3-phenylpropyl)-1,3,4,9-tetrahydro-2H-beta-carbolin-2-yl]hexanoic acid], half-maximal inhibition (IC50) was put at 34 nM.

In turn, `CC1(C)[C@@H](CC(=O)N2CCc3c(n(Cc4ccc(F)c(Cl)c4)c4ncccc34)C2)CC[C@@]1(C)C(=O)O` [Example 31(169), (1R,3R)-3-{2-[9-(3-chloro-4-fluorobenzyl)-5,6,8,9-tetrahydro-7H-pyrido[4′,3′:4,5]pyrrolo[2,3-b]pyridin-7-yl]-2-oxoethyl}-1,2,2-trimethylcyclopentanecarboxylic acid] yielded an IC50 of 13 nM. In turn, `CC(C)(CCCC(=O)N1CCc2c(n(Cc3ccc(F)cc3F)c3ncccc23)C1)C(=O)O` [Example 12(97), 6-[9-(2,4-difluorobenzyl)-5,6,8,9-tetrahydro-7H-pyrido[4′,3′:4,5]pyrrolo[2,3-b]pyridin-7-yl]-2,2-dimethyl-6-oxohexanoic acid] came in with an IC50 of 6.7 nM.

In the case of `CC(C)(CCCC(=O)N1CCc2c(n(Cc3ccc(Cl)s3)c3ncccc23)C1)C(=O)O` [Example 12(42), 6-{9-[(5-chloro-2-thienyl)methyl]-5,6,8,9-tetrahydro-7H-pyrido[4′,3′:4,5]pyrrolo[2,3-b]pyridin-7-yl}-2,2-dimethyl-6-oxohexanoic acid], 9.6 nM corresponded to half-maximal inhibition (IC50).

`O=C(C[C@H]1CC[C@H](C(=O)O)CC1)N1CCc2c(n(Cc3ccc(Cl)cc3F)c3ncccc23)C1` [Example 31(24), trans-4-{2-[9-(4-chloro-2-fluorobenzyl)-5,6,8,9-tetrahydro-7H-pyrido[4′,3′:4,5]pyrrolo[2,3-b]pyridin-7-yl]-2-oxoethyl}cyclohexanecarboxylic acid] had an IC50 of 5 nM.

In the next assay the test system is SD male rat. The experiment in a line: Measurement of urethra internal pressure in rat under anesthesia. It is filed as in vivo. Particulars: rat under urethane anesthesia; intravenous 0.03, 0.1, 0.3 mg/kg; FIG. 2. The source says: A SD male rat (Crl: CD(SD), Charles River Laboratories Japan, Inc., 7-10 weeks old) was anesthetized by subcutaneous administration of 1.5 g/kg urethane at a back of a neck. After neck median incision, a jugular vein catheter for intravenous administration was inserted. A lower abdominal part was median incised, and a urethra was ligated at around pubis. A urethral catheter for measuring a urethra internal pressure, equipped with a collar at a tip and filled with a physiological saline was inserted into a urethra through an incised bladder top, and ligation-fixed at a bladder neck part. The urethral catheter was connected to a pressure transducer (manufactured by Nihon Kohden Corporation), and a urethra internal pressure was measured. […] A urethra internal pressure reduction rate (%) was calculated based on a urethra internal pressure after compound administration, wherein a value obtained by subtracting a postmortem baseline value (minimum value of urethra internal pressure for 10 minutes after administration of somnopentyl) from a urethra internal pressure value before compound administration (0 minute) was 100%.
Turning to `O=C(C[C@H]1CC[C@H](C(=O)O)CC1)N1CCc2c(n(Cc3ccc(Cl)cc3F)c3ncccc23)C1` [Example 31(24), trans-4-{2-[9-(4-chloro-2-fluorobenzyl)-5,6,8,9-tetrahydro-7H-pyrido[4′,3′:4,5]pyrrolo[2,3-b]pyridin-7-yl]-2-oxoethyl}cyclohexanecarboxylic acid], the urethra internal pressure entry was “significantly reduced a urethra internal pressure”.

The same assay, now with this note: rat under urethane anesthesia; intravenous 0.1, 0.3, 1.0 mg/kg; FIG. 1.
In the case of `O=C(O)CCCCC(=O)N1CCc2c(n(CCCc3ccccc3)c3ccccc23)C1` [Example 3, 6-oxo-6-[9-(3-phenylpropyl)-1,3,4,9-tetrahydro-2H-beta-carbolin-2-yl]hexanoic acid], the urethra internal pressure result was “significantly reduced a urethra internal pressure”.
